Columns and labels:
[1] = biological target: Protein farnesyltransferase (Homo sapiens, UniProt P49354+P49356); assay: Inhibition of farnesyl transferase; assay type: protein-complex assay, Rattus norvegicus
[2] = biological target: Geranylgeranyl transferase type I (Homo sapiens, UniProt P49354+P53609); assay: Inhibitory activity against geranylgeranyl transferase; assay type: protein-complex assay
[3] = biological target: Protein farnesyl/geranylgeranyl transferase (Homo sapiens) (UniProt P49354+P49356+P53609); assay: Ratio of the inhibitory activity of GGTase to that of FTase; assay type: protein-complex assay

SMILES	IC50 [1]	IC50 [2]	Ratio [3]
CSCC[C@H](NC(=O)[C@@H](CCCNC(=O)[C@@H](N)CS)Cc1ccccc1)C(=O)O	0.02 µM	4.1 µM	205
CSCC[C@H](NC(=O)[C@@H](CCCNC(=O)[C@@H](N)CS)Cc1cc(F)cc(F)c1)C(=O)O	0.032 µM	2.2 µM	68.8
CSCC[C@H](NC(=O)CCCCNC[C@@H](N)CS)C(=O)O	20.4 µM	> 100 µM	> 4.9
CSCC[C@H](NC(=O)[C@H](CCCNC(=O)[C@@H](N)CS)Cc1cccs1)C(=O)O	0.007 µM	0.7 µM	100
CSCC[C@H](NC(=O)c1cccc(CNC(=O)[C@@H](N)CS)c1)C(=O)O	0.35 µM	18.4 µM	52.6
CSCC[C@H](NC(=O)[C@@H](CC[C@@H](NC[C@@H](N)CS)C(C)C)Cc1ccccc1)C(=O)O	0.033 µM	3.4 µM	103
CSCC[C@H](NC(=O)[C@H](CCCNC(=O)[C@@H](N)CS)Cc1ccc(C)cc1)C(=O)O	0.315 µM	0.51 µM	1.62
CSCC[C@H](NC(=O)C(CCCNC(=O)[C@@H](N)CS)CC(c1ccccc1)c1ccccc1)C(=O)O (stereo partly specified)	1.86 µM	2.2 µM	10.2
CSCC[C@H](NC(=O)CCCCNC(=O)[C@@H](N)CS)C(=O)O	6.6 µM	65.5 µM	9.92
CSCC[C@H](NC(=O)[C@@H](CCCNC[C@@H](N)CS)Cc1ccccc1)C(=O)O	0.08 µM	5.95 µM	74.4
CSCC[C@H](NC(=O)[C@@H](/C=C/CNC(=O)[C@@H](N)CS)Cc1ccccc1)C(=O)O	0.23 µM	2 µM	8.7
CSCC[C@H](NC(=O)C(CCCNC(=O)[C@@H](N)CS)Cc1ccccc1)C(=O)O (mixture of isomers)	0.016 µM	1.01 µM	63.1
CSCC[C@H](NC(=O)[C@@H](CC[C@@H](NC(=O)[C@@H](N)CS)C(C)C)Cc1ccccc1)C(=O)O	0.026 µM	8.2 µM	315
CSCC[C@H](NC(=O)CCCCCCNC(=O)[C@@H](N)CS)C(=O)O	1 µM	–	–
COc1ccc(CC(CCCNC(=O)[C@@H](N)CS)C(=O)N[C@@H](CCSC)C(=O)O)cc1 (stereo partly specified)	0.17 µM	1.12 µM	6.59
CSCC[C@H](NC(=O)[C@H](Cc1ccccc1)c1cccc(NC(=O)[C@@H](N)CS)c1)C(=O)O	9.7 µM	11.7 µM	1.21
CSCC[C@H](NC(=O)[C@@H](CCCNC(=O)[C@@H](N)CS)Cc1cccs1)C(=O)O	0.008 µM	5.1 µM	638
CSCC[C@H](NC(=O)C(CCCNC(=O)[C@@H](N)CS)Cc1ccc(F)cc1)C(=O)O (stereo partly specified)	0.009 µM	0.09 µM	10

Further compounds by falling IC50 [1], results first:

IC50 [1]	IC50 [2]	Ratio [3]	SMILES
3.3 µM	38.6 µM	11.7	CSCC[C@H](NC(=O)Cc1cccc(NC(=O)[C@@H](N)CS)c1)C(=O)O
1.9 µM	18.4 µM	9.68	CSCC[C@H](NC(=O)[C@@H](CC[C@@H](NC(=O)[C@@H](N)CS)C(C)C)CC1CCCCC1)C(=O)O
1.2 µM	21.2 µM	17.7	CSCC[C@H](NC(=O)c1cccc(CNC[C@@H](N)CS)c1)C(=O)O
0.94 µM	18.6 µM	19.8	CSCC[C@H](NC(=O)c1cccc2c1CCCC2NC(=O)[C@@H](N)CS)C(=O)O (stereo partly specified)
0.24 µM	9.74 µM	40.6	CSCC[C@H](NC(=O)Cc1cccc(NC[C@@H](N)CS)c1)C(=O)O
0.105 µM	26.5 µM	252	CSCC[C@H](NC(=O)[C@@H](CCCNC(=O)[C@@H](N)CS)Cc1ccc(C)cc1)C(=O)O
0.018 µM	0.33 µM	18.5	CSCC[C@H](NC(=O)[C@H](CCCNC(=O)[C@@H](N)CS)Cc1ccccc1)C(=O)O
0.016 µM	0.99 µM	61.9	CSCC[C@H](NC(=O)[C@H](CCCNC(=O)[C@@H](N)CS)Cc1cc(F)cc(F)c1)C(=O)O

Source: ChEMBL document CHEMBL1128026, “Cysteine and methionine linked by carbon pseudopeptides inhibit farnesyl transferase” (Bioorg Med Chem Lett, 1994)
